Results taken from paper PMC7933930, “Development of a small molecule that corrects misfolding and increases secretion of Z α1‐antitrypsin” (EMBO Molecular Medicine, 2021).
pEC50, pIC50: −log10 of the molar value. Like-named read-outs stand apart in the source and are kept apart here.

How the values were obtained:
[1] = molecular target: Aryl hydrocarbon receptor (Homo sapiens, UniProt P35869); assay: Off‐target panel: Aryl hydrocarbon receptor; format: cell-based; conditions: Activator, read-out: Mean (PXC50)
Aryl hydrocarbon receptor, sequence (P35869 11-848, species assumed): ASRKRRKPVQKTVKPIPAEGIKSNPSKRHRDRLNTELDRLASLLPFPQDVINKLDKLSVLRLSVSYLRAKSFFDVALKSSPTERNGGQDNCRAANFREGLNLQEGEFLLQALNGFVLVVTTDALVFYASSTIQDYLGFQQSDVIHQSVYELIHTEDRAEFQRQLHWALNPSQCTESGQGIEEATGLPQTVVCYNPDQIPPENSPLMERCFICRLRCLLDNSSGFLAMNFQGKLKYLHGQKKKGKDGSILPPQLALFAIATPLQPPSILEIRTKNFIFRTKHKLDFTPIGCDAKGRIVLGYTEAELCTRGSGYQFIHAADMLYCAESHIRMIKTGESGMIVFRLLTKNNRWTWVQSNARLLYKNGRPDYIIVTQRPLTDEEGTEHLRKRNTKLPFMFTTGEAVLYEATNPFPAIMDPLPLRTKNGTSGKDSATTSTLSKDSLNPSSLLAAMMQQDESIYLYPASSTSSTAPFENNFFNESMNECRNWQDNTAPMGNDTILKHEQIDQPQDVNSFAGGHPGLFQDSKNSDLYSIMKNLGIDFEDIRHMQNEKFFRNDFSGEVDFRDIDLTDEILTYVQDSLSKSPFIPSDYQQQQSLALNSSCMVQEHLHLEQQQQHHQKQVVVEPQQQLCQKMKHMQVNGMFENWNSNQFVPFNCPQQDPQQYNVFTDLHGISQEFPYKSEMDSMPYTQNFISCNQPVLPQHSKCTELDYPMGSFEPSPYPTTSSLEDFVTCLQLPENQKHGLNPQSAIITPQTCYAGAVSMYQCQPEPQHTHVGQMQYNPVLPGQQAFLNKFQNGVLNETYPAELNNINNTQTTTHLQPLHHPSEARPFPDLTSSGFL
Procedure: (§1) GSK716 selectivity and PK properties were profiled in order to investigate the suitability of GSK716 for progression into in vivo studies and the potential for taking it forward as a clinical candidate for testing in humans. Since GSK716 results in loss of inhibitory activity of α1‐antitrypsin, the effect of the compound was assessed on other closely related serpins. […] Furthermore, there were no off‐target effects in a panel of assays considered predictive of known safety liabilities that precluded further development of GSK716 (Table EV1).

Z α1‐antitrypsin = Z α1‐antitrypsin (Homo sapiens, UniProt P01009, E366K); assay: Competition binding assay with Alexa488‐labelled analogue of GSK716, Z α1‐antitrypsin; set-up: purified from the plasma of Z α1‐antitrypsin homozygotes; from tissue; host or cells: human plasma of Z α1-antitrypsin homozygotes; conditions: n = 18, mean ± SD, read-out: mean pKD (converted)
Z α1‐antitrypsin, sequence (P01009 25-418 E366K): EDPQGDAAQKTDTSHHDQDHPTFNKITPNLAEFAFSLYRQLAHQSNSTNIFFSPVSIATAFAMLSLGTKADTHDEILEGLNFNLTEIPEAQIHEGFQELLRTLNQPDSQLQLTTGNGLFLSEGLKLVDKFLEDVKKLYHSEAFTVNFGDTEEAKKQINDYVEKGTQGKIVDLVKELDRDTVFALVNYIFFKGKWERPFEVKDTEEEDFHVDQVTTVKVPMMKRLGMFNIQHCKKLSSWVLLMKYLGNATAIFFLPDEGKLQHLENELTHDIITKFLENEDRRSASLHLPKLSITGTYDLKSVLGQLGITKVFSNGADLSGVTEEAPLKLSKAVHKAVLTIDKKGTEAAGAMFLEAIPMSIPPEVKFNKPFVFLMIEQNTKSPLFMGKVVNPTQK
Description: The shape of the curves and native mass spectrometry (not shown) are consistent with a single high‐affinity compound binding site. No binding of the fluorescent derivative to polymers of Z α1‐antitrypsin was observed, indicating conformational selectivity for the monomeric protein (Fig 1D). The rate of interaction of the compound with the target was monitored through changes in intrinsic tryptophan fluorescence (Dafforn et al, 1999); this property was used to determine the second‐order association rate constants for GSK716 binding to Z (4.1 × 10^4 M^−1 s^−1) and M α1‐antitrypsin (2.1 × 10^2 M^−1 s^−1; Fig 1E and F). […] Therefore, the selectivity of the compound for Z over M α1‐antitrypsin is dominated by the difference in the rate of association rather than dissociation.
Kinetic parameters of GSK716 binding to M, Z, S (Glu264Val) and Baghdad (Ala336Pro) (Haq et al, 2016) α1‐antitrypsin were measured by detecting intrinsic tryptophan fluorescence of the protein (excitation at 280 nm and detection of emission at 320 nm) on a stopped flow apparatus (Applied Photophysics) (Kim & Yu, 1996; Dafforn et al, 1999). […]

P-gp (MDR1) = assay: Permeability in MDR1‐MDCK cells with pgp inhibitor; format: in vitro ADME; conditions: dog
Procedure: Permeability in MDR1‐MDCK cells in the presence of pgp inhibitor GF120918 was high at 248 and 240 nm/s for the apical to basal and basal to apical directions, respectively (N53531‐23 for DI).
MDR1‐MDCK cells were used between passage numbers 6–30. Cells were seeded onto Millipore Multiscreen Transwell plates at 3.4 × 10^5 cells/cm^2. The cells were cultured in DMEM and media was changed on day 3. On day 4 the permeability study was performed. Cell culture and assay incubations were carried out at 37°C in an atmosphere of 5% v/v CO2 with a relative humidity of 95%. On the day of the assay, the monolayers were prepared by rinsing both apical and basolateral surfaces twice with Hanks Balanced Salt Solution (HBSS) at the desired pH warmed to 37°C. Cells were then incubated with HBSS at the desired pH in both apical and basolateral compartments for 40 min to stabilise physiological parameters. Where applicable, a P‐gp inhibitor (elacridar, 2 µM) was included on both sides of the monolayer for the equilibration period. For assessment of apical‐basolateral permeability, HBSS was removed from the apical compartment and replaced with test compound dosing solution. The apical compartment insert was then placed into a companion plate containing fresh buffer (containing 0.5% v/v DMSO or, where applicable, a P‐gp inhibitor, maintaining a 0.5% v/v DMSO concentration). […]

PDE4B = PDE4B (Homo sapiens, UniProt Q07343); assay: Off‐target panel: PDE4B; format: biochemical; conditions: Inhibition, read-out: Mean (PXC50)
PDE4B, sequence (Q07343 whole entry, species assumed): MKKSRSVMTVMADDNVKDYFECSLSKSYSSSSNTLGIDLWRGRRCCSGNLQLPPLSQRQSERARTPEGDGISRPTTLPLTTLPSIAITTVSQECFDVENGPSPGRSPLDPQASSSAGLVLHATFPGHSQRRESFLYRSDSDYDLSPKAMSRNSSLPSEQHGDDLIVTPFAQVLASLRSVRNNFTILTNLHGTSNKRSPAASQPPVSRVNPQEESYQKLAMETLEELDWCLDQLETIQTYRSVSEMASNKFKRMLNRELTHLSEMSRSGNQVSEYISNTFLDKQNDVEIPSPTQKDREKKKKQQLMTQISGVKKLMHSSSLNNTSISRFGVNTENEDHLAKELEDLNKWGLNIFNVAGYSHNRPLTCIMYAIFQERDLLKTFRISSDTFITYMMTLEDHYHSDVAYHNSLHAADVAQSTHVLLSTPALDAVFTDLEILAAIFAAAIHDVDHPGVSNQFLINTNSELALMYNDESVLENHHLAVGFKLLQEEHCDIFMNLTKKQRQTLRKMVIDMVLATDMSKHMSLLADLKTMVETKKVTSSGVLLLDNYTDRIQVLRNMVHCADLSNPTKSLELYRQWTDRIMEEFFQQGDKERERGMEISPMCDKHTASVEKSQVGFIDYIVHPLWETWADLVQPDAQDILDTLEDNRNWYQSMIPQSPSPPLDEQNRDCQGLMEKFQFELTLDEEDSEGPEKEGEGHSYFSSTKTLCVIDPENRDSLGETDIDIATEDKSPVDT
Procedure: as §1

PI3Kg = PI3Kg (Homo sapiens, UniProt P48736); assay: Off‐target panel: PI3Kg; format: biochemical; conditions: Inhibition, read-out: Mean (PXC50)
PI3Kg, sequence (P48736 whole entry): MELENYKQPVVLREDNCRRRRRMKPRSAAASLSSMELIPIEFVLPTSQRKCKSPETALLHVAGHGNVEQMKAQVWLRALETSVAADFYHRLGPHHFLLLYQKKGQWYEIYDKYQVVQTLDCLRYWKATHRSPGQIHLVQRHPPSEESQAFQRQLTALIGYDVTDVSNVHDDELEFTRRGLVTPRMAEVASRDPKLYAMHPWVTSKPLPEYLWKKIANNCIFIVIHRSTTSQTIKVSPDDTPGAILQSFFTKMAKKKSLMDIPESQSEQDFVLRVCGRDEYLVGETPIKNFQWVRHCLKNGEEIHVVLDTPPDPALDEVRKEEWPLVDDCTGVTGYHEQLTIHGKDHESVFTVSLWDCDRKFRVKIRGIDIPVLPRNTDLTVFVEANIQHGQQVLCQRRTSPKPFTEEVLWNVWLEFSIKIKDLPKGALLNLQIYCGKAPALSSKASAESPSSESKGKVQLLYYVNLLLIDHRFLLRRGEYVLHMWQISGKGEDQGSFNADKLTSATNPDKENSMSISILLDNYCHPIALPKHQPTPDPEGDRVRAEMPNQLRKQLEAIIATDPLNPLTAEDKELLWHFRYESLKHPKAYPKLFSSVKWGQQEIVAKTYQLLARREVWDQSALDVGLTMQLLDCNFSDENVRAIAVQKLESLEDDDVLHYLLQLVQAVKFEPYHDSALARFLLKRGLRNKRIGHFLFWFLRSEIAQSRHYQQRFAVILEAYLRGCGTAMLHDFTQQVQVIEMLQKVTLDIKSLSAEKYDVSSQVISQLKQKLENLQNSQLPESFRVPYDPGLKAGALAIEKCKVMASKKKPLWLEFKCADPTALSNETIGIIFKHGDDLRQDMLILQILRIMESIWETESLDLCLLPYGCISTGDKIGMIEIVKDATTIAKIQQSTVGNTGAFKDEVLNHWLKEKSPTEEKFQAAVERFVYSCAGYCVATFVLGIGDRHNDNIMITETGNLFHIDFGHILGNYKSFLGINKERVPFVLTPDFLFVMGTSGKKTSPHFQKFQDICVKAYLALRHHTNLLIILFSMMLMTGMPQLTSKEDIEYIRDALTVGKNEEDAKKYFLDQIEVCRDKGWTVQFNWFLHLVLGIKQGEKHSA
Procedure: as §1

[2] = system: Z α1‐antitrypsin polymers in iPSC‐derived human hepatocytes (ZZ genotype); assay: Z α1‐antitrypsin polymerisation in ZZ iPSC‐derived human hepatocytes; format: cell-based; conditions: Hepatocyte, n = 16, read-out: mean pIC50, polymerisation (converted)

CCC[C@@H](NC(=O)c1cccc2c1CC(=O)N2)[C@@H](O)c1cccc(F)c1C [GSK716]
pEC50 [1]: < 4.00 | Kd (Z α1‐antitrypsin): 3.16 nM | Papp at 60 min (P-gp (MDR1); with pgp inhibitor GF120918, read-out: permeability, apical to basal): 24.8 ×10⁻⁶ cm/s | Papp at 60 min (P-gp (MDR1); with pgp inhibitor GF120918, read-out: permeability, basal to apical): 24 ×10⁻⁶ cm/s | pIC50 (PDE4B): < 4.00 | pIC50 (PI3Kg): < 4.50 | IC50 [2]: 398 nM
